According to US20110293745A1, “AURORA KINASE INHIBITORS” (SUNESIS PHARMACEUTICALS, INC., priority 2008, published 2011):
Where two headings read alike, the source gives them in different places.

Tests used:
[1] = Protein binding, Rapid Equilibrium Dialysis; assay type: in vitro ADME; conditions: 15 μM
Procedure: Studies were performed using the Rapid Equilibrium Dialysis (RED) device (Linden Bioscience). Inserts were soaked in water for 10 min×2, then removed and drained immediately prior to use. […] All experiments were performed in duplicate and each chamber was sampled in duplicate. The samples were incubated for 4-6 h at 37° C. in a rotating incubator (100 rpm). Compound 2 was quantified using LC-MS/MS. Data from duplicate samples each sampled twice.

[2] = Mass balance, elimination, autoradiography and metabolites with 14C-label; assay type: in vivo; conditions: male rats, 14C-labeled Compound 1 IV bolus 50 mg/kg, total radioactivity
Procedure: Treated rats were further cannulated in femoral vein and the bile duct to allow for the evaluation of the rate and extent of elimination of total radioactivity from urine, bile, and feces. Total radioactivity was analyzed by liquid scintillation counting.
Preparation of samples for metabolite analysis was as follows. Plasma samples were extracted by protein precipitation with acetonitrile. The extraction was preformed by adding ice cold acetonitrile (3 parts) to plasma (1 part v/v). After the samples were mixed using a benchtop vortex mixer the samples were centrifuged, the supernatants were transferred to silanized glass tubes, evaporated to dryness under nitrogen, and reconstituted in 50/50 acetonitrile/water solution. Urine samples were directly injected. Bile samples containing radioactivity were diluted in water prior to injection.
Metabolites in plasma, urine, and bile were separated on a reverse phase HPLC column with an Agilent 1000 system (Santa Clara, Calif.).

[3] = Distribution of compound in tumor and plasma, HCT 116 xenograft mice; assay type: in vivo, mouse; conditions: for half-life: female, nu/nu athymic, mouse, ip, 170 mg/kg
Procedure: The studies in Examples 20, 21, and 22 used female mice nu/nu athymic mice. Compound 1 was formulated fresh each week for dosing. […] HCT 116 colorectal carcinoma cells were implanted in the animals' right hind flanks subcutaneously with 200 μL of a 2.5×10^7 cells/mL suspension [1:1 Dulbecco's PBS (DPBS) with cells:Matrigel™. […] Dosing schedules are provided separately for each of the studies in Examples 28, 29, and 30. […] Terminal blood and tumor samples were harvested between 15 min and 96 hr. Female nu/nu athymic mice received HCT 116 colorectal cancer cell suspension (1:1 DPBS with cells:Matrigel) as a subcutaneous injection in the right hind flank. […] For HPLC-MS/MS, the detector consisted of an API4000 (Sciex/ABI, Foster City, Calif.) triple quadrapole mass spectrometer using turbo electrospray ionization.

[4] = tested on: pHH3 in HCT 116 xenograft tumor; assay: Plasma concentration versus pHH3 in tumor (Western blot, ELISA, HPLC-MS/MS); assay type: in vivo, mouse
Procedure: When tumors reached an average volume of 400 mm^3, mice were sorted into randomized groups of 3 per time point. […] Tumor samples were frozen on liquid nitrogen, and ground into a fine powder. Lysis buffer containing phosphatase inhibitors was added to the tumor powder before homogenization and a snap freeze cycle. The cellular debris was removed by centrifugation, and the protein concentration was measured using the BioRad DC Protein Assay. […] Protein was transferred to PVDF membrane at a constant 30 V for 1 hr using the Invitrogen XCell II Blot Module transfer system and, upon completion, the membranes were incubated with 5% milk in TBST (Tris-buffered saline with Tween) at room temperature for 1 hr. […] Membranes were washed with TBST, and antibodies were detected with ECL Plus chemiluminescent detection system (Amersham), followed by exposure to Kodak BioMax film.
Films were visually assessed for total histone H3 (HH3) and histone H3 phosphorylation (pHH3). Total HH3 levels served as loading controls.
Phospho-histone H3 levels were determined using a commercial ELISA kit from (# KHO0671, Biosource/Invitrogen). The conditions were as described by the manufacturer with 100 μg total proteins from tumor lysates prepared as described in this Example.
Preparation of Plasma Samples. […]

[5] = tested on: HCT 116 colon cancer xenograft; assay: In vivo efficacy, mouse xenograft
Procedure: HCT 116 colon cancer cells [200 μL of a 2.5×10^7 cells/mL suspension (1:1 DPBS with cells:Matrigel)] were subcutaneously implanted in the right hind flank of female nu/nu athymic mice. After 7 days, when tumors reached an average volume of approximately 200 mm^3, animals were weighed, randomized by tumor volume (l×w×h×0.52), and assigned to the various study groups before initial dosing.
[…]. The animals on the twice-weekly schedule received compound on Days 1, 4, 8, 11, 15 and 18. […].
Percent TGI is then calculated with the following equation: […]
where TVt is the average tumor volume on Day 10 and TV, is the initial average tumor volume. ANOVA was performed to calculate statistical significance, defined as p<0.05.
Time To Endpoint (TTE) was calculated for each individual animal to reach the predetermined study end point where the tumor volume becomes 1200 mm^3 or 10% of body weight or a greater than 20% body weight loss for two sequential measurements. The TTE is calculated and the median value is recorded for the group. Tumor Growth Delay (TGD) is then calculated with the following equation:
TGD=median TTEtreatment−median TTEcontrol

[6] = tested on: MV-4-11 (human acute myeloid leukemia) xenograft; assay: In vivo efficacy, mouse xenograft; conditions: 150 mg/kg IP twice-weekly for 3 weeks
Procedure: The human cell line MV-4-11 (human acute myeloid leukemia) was established as subcutaneous xenografts in nu/nu female mice. Animals were randomized by tumor volume and distributed into groups of ten animals each. Treatments were initiated when tumors averaged about 200 mm^3 in volume. End points for each group were determined based on body weight nadir, adverse clinical observations, or tumor volumes exceeding maximum threshold of 2000 mm^3.
[…]. Responses were assessed by tumor growth inhibition (TGI) and tumor growth delay (TGD). TGI and TGD in the treatment group were evaluated against the vehicle control group.

DDR2 = target: T1, DDR2 (Homo sapiens, UniProt Q16832); assay: Radiometric kinase assay (Upstate panel); assay type: biochemical
T1 construct: purchased Upstate Biotechnology, Dundee, UK
T1 sequence (Q16832 22-855): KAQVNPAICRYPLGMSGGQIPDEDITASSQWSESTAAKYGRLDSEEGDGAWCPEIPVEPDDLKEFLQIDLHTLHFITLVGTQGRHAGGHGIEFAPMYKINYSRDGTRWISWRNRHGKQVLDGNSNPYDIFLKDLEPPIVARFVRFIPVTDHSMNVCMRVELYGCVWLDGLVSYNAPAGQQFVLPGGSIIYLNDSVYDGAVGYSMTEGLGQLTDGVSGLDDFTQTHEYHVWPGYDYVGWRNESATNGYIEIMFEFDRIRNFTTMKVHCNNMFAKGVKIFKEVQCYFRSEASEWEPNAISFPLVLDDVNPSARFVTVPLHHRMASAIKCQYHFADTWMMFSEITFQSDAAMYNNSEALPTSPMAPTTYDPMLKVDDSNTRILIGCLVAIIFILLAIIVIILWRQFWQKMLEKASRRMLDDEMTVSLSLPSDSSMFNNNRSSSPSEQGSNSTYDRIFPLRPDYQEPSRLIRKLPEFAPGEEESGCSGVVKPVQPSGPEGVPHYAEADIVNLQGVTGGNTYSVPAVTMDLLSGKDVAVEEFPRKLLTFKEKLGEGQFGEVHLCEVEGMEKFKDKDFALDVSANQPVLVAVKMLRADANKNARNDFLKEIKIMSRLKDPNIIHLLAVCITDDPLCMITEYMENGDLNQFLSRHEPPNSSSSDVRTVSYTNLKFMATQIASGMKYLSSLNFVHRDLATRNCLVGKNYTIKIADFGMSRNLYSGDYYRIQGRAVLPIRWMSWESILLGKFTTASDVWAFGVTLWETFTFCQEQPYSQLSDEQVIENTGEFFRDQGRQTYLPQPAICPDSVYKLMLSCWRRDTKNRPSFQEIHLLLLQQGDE

HT-29 = assay: cells; conditions: Homo sapiens, HT-29, 16 h, read-out: Cell Cycle EC50
[7] = tested on: histone H3 phosphorylation in epidermis; assay: pHH3 immunohistochemistry in mouse skin punches; assay type: in vivo
Procedure: For each study, animals were randomized by tumor volume and distributed into groups of ten animals each. […] Inhibition of histone H3 (HH3) phosphorylation was evaluated in HCT 116 xenograft tumors, mouse femur bone marrow, and mouse skin punch biopsy sections by immunohistochemistry (IHC). […] The tumors were collected 6 hrs post-dose on day 4, 11, 18 and on day 25 (one week after completion of dosing phase of the experiment). Phosphorylated histone H3 (pHH3) was detected by immunohistochemistry staining of tissue sections with the antibody # 9701 (Cell Signaling Technology, Inc.), which recognizes phosphorylation of Ser10 residue in histone H3 protein. […] Three mice in each group were sacrificed on day 4 and day 18, 6 hours post-dose. Skin punches (8 mm) were fixed in formalin, trimmed, and sections stained to identify cells positive for histone H3 phosphorylation.

[8] = HCT 116 (Colon), 75 mg/kg biw × 3
[9] = HCT 116 (Colon), 100 mg/kg biw × 3
[10] = HCT 116 (Colon), 150 mg/kg biw × 3

In the case of `O=C(Nc1cccc(Cl)c1)Nc1ncc(CCNc2ncnc3ccsc23)s1` [Compound 2, 1-(3-chlorophenyl)-3-{5-[2-(thieno[3,2-d]pyrimidin-4-ylamino)ethyl]thiazol-2-yl}-urea], the mean percentage protein-bound ([1]; dog plasma) is reported as “greater than or equal to 99.9%”, the mean percentage protein-bound ([1]; human plasma) is reported as “greater than or equal to 99.9%” and the mean percentage protein-bound ([1]; mouse plasma) is reported as “greater than or equal to 99.9%”. The “Mean cumulative % recovery” value ([2]; Bile, interval 0-8 hr) was 39.7%, the “Mean cumulative % recovery” value ([2]; Bile, interval 8-24 hr) was 68.5% and the “Mean cumulative % recovery” value ([2]; Bile, interval 24-48 hr) was 69.5%. The “Mean cumulative % recovery” value ([2]; Cumulative Total, 24 hr) was 89.7%, the “Mean cumulative % recovery” value ([2]; Cumulative Total, 48 hr) was 92.3% and the “Mean cumulative % recovery” value ([2]; Feces, interval 0-24 hr) was 11.8%. The “Mean cumulative % recovery” value ([2]; Feces, interval 24-48 hr) was 13.2%, the “Mean cumulative % recovery” value ([2]; Urine, interval 0-8 hr) was 6.1% and the “Mean cumulative % recovery” value ([2]; Urine, interval 8-24 hr) was 9.4%. The “Mean cumulative % recovery” value ([2]; Urine, interval 24-48 hr) was 9.6%, the half-life ([3]; plasma, read-out: half-life in plasma (converted)) was 4.7 h and the half-life ([3]; tumor, read-out: half-life in tumor (converted)) was 7.5 h. For the same compound, the “plasma concentration that produced maximal inhibition of phosphorylation of Histone H3 in tumor” value ([4]; 1 hr postdose, HCT 116 xenograft mice, FIG. 43B) was 5 µM.

For `CS(=O)(=O)O.O=C(Nc1cccc(Cl)c1)Nc1ncc(CCNc2ncnc3ccsc23)s1` [Compound 1, 1-(3-chlorophenyl)-3-{5-[2-(thieno[3,2-d]pyrimidin-4-ylamino)ethyl]thiazo}-urea], the “TGD” value ([5]; 100 mg/kg, qd × 5, 9 d off × 2) was 45 days, the “TGD” value ([5]; 125 mg/kg, Qw × 3) was 22.5 days and the “TGD” value ([5]; 150 mg/kg, biw × 3) was 32.5 days. For the same compound, the “% TGI” value [5, 8] was 67.5%, the TGD [5, 8] was 22 days and the “% TGI” value [5, 9] was 79.4%. For the same compound, the TGD [5, 9] was 25.1 days, the “% TGI” value [5, 10] was 95.6% and the TGD [5, 10] was 32.5 days. For the same compound, the “time measurable drug levels are sustained in the HCT 116 tumor” value ([3]; post-dose) was “more than 96 hours”, the tumor growth delay [6] was 10 days and the “Percent tumor growth inhibition (% TGI)” value ([6]; p-value 0.0008) was 75.56%. The IC50 (DDR2) was 0.082 µM, the “time maximal inhibition of phospho-histone H3 in tumor was maintained” value ([4]; single dose of 170 mg/kg IP) was “up to 24 hours” and the EC50 (HT-29) was 0.012 µM. The “reduction of number of phospho-histone H3 positively stained cells in epidermis versus vehicle” value ([7]; 150 mg/kg biweekly for 3 weeks, day 4 and day 18, 6 hours post-dose) was roughly 50% and the “number of positively stained cells in epidermis versus vehicle” value ([7]; day 25) was “still decreased”.
